Drawing on patent publication US9212151B2, “Heterocyclic compounds useful for kinase inhibition” (Amitech Therapeutic Solutions, Inc., priority 2010, dated 2015), this text covers viability for 29 compounds.

A short description of this data set: MTT cell viability assay, compounds at 5, 1 and 0.2 μM, 48 hours. In kind it is cell-based. As to conditions: human, A549 tumor cells. In short, it runs like this: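 A549 cells were seeded at 2500/well in DMEM + 10% FBS, grown overnight, then exposed to compound for 48 h. Viability was read by MTT (5 mg/ml, 4 h), with formazan dissolved in DMSO and absorbance measured at 560/570 nm to give survival rate.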

The structures appear in SMILES notation.

Usually viability stands for the share of living cells, or the viability signal relative to a control. A high value points to less harm to the cells. Compound `COc1ccc2c(Oc3cccc(-c4nnc(Nc5cccc(C(F)(F)F)c5)[nH]4)c3)ccnc2c1` [Compound 22] registered a viability at 48 h, 0.2 µM greater than 70%; a viability at 48 h, 1 µM greater than 70%; a viability at 48 h, 5 µM greater than 70%.

As for `CSc1nc(N)cc(Oc2ccc(-c3nnc(Nc4cccc5c4CCCC5)[nH]3)cc2)n1` [Compound 135], the viability at 48 h, 0.2 µM was less than 50%; the viability at 48 h, 1 µM was less than 50%; the viability at 48 h, 5 µM is less than 50%.

In turn, `COc1cc2ncnc(Oc3cccc(-c4nnc(Nc5cccc(C(F)(F)F)c5)[nH]4)c3)c2cc1OC` [Compound 170] had a viability at 48 h, 0.2 µM greater than 70%; a viability at 48 h, 1 µM greater than 70%; a viability at 48 h, 5 µM greater than 70%.

`O=c1cc(COc2cccc(-c3nnc(Nc4cccc(C(F)(F)F)c4)[nH]3)c2)c2ccccc2[nH]1` [Compound 171] registered a viability at 48 h, 0.2 µM greater than 70%; a viability at 48 h, 1 µM greater than 70%; a viability at 48 h, 5 µM greater than 70%.

Compound `CSc1nc(N)cc(Oc2cccc(-c3nnc(Nc4cccc(C(F)(F)F)c4)[nH]3)c2)n1` [Compound 14] yielded a viability at 48 h, 0.2 µM of 50 to 70%; a viability at 48 h, 1 µM of 50 to 70%; a viability at 48 h, 5 µM of 50 to 70%.

`FC(F)(F)c1cccc(Nc2nnc(-c3ccc(Oc4ccnc5ccccc45)cc3)o2)c1` [Compound 34] had a viability at 48 h, 0.2 µM greater than 70%; a viability at 48 h, 1 µM greater than 70%; a viability at 48 h, 5 µM greater than 70%.

Compound `FC(F)(F)c1cccc(Nc2nnc(-c3ccc(Oc4cc(C(F)(F)F)nc5ccccc45)cc3)[nH]2)c1` [Compound 159] gave a viability at 48 h, 0.2 µM greater than 70%; a viability at 48 h, 1 µM greater than 70%; a viability at 48 h, 5 µM of 50 to 70%.

In turn, `Cc1nc(N)cc(Oc2ccc(-c3nnc(Nc4cccc(C(F)(F)F)c4)[nH]3)cc2)n1` [Compound 82] gave a viability at 48 h, 0.2 µM greater than 70%; a viability at 48 h, 1 µM greater than 70%; a viability at 48 h, 5 µM of 50 to 70%.

In turn, `CCOc1cc(Oc2cccc(-c3nnc(Nc4cccc(C(F)(F)F)c4)[nH]3)c2)nc(N)n1` [Compound 57] registered a viability at 48 h, 0.2 µM greater than 70%; a viability at 48 h, 1 µM greater than 70%; a viability at 48 h, 5 µM greater than 70%.

With `CC(=O)NCCSc1nc(N)cc(Oc2ccc(-c3nnc(Nc4cccc(C(F)(F)F)c4)[nH]3)cc2)n1` [Compound 114], the viability at 48 h, 0.2 µM is greater than 70%; the viability at 48 h, 1 µM is greater than 70%; the viability at 48 h, 5 µM was greater than 70%.

In the case of `CCc1cc(Oc2ccc(-c3nnc(Nc4cccc(C(F)(F)F)c4)[nH]3)cc2)nc(N)n1` [Compound 77], the viability at 48 h, 0.2 µM was greater than 70%; the viability at 48 h, 1 µM lay within 50 to 70%; the viability at 48 h, 5 µM lay within 50 to 70%.

`CCc1cc(Oc2cccc(-c3nnc(Nc4cccc(C(F)(F)F)c4)[nH]3)c2)nc(N)n1` [Compound 94] returned a viability at 48 h, 0.2 µM greater than 70%; a viability at 48 h, 1 µM greater than 70%; a viability at 48 h, 5 µM of 50 to 70%.

For `Nc1cc(Oc2ccc(-c3nnc(Nc4cccc(C(F)(F)F)c4)o3)cc2)nc(N)n1` [Compound 24], the viability at 48 h, 0.2 µM is greater than 70%; the viability at 48 h, 1 µM is greater than 70%; the viability at 48 h, 5 µM is greater than 70%.

Compound `COc1ccc2c(Oc3ccc(-c4nnc(Nc5cccc(C(F)(F)F)c5)[nH]4)cc3)ncnc2c1` [Compound 70] gave a viability at 48 h, 0.2 µM greater than 70%; a viability at 48 h, 1 µM greater than 70%; a viability at 48 h, 5 µM of less than 50%.

The compound `COCCOc1nc(N)cc(Oc2ccc(-c3nnc(Nc4cccc(C(F)(F)F)c4)[nH]3)cc2)n1` [Compound 78] yielded a viability at 48 h, 0.2 µM greater than 70%; a viability at 48 h, 1 µM greater than 70%; a viability at 48 h, 5 µM of less than 50%.

With `COc1ccc2nccc(Oc3cccc(-c4nnc(Nc5cccc(C(F)(F)F)c5)[nH]4)c3)c2c1` [Compound 191], the viability at 48 h, 0.2 µM was greater than 70%; the viability at 48 h, 1 µM was greater than 70%; the viability at 48 h, 5 µM is greater than 70%.

`COc1nc(N)cc(Oc2cccc(-c3nnc(Nc4cccc(C(F)(F)F)c4)[nH]3)c2)n1` [Compound 89] yielded a viability at 48 h, 0.2 µM greater than 70%; a viability at 48 h, 1 µM greater than 70%; a viability at 48 h, 5 µM greater than 70%.

`FC(F)(F)c1cccc(Nc2nnc(-c3ccc(Oc4cncnc4)cc3)[nH]2)c1` [Compound 83] showed a viability at 48 h, 0.2 µM greater than 70%; a viability at 48 h, 1 µM greater than 70%; a viability at 48 h, 5 µM greater than 70%.

On to `COc1nc(Oc2cccc(-c3nnc(Nc4cccc(C(F)(F)F)c4)[nH]3)c2)c2cc[nH]c2n1` [Compound 92], for which the viability at 48 h, 0.2 µM was greater than 70%; the viability at 48 h, 1 µM was greater than 70%; the viability at 48 h, 5 µM was greater than 70%.

`O=c1cc(COc2ccc(-c3nnc(Nc4cccc(C(F)(F)F)c4)[nH]3)cc2)c2ccccc2[nH]1` [Compound 161]: the viability at 48 h, 0.2 µM was greater than 70%; the viability at 48 h, 1 µM was 50 to 70%; the viability at 48 h, 5 µM is less than 50%.

Compound `CSc1nc(N)cc(Oc2ccc(Nc3nnc(-c4cccc(Cl)c4)[nH]3)cc2)n1` [Compound 180] showed a viability at 48 h, 0.2 µM greater than 70%; a viability at 48 h, 1 µM greater than 70%; a viability at 48 h, 5 µM of 50 to 70%.

The compound `CSc1nc(N)cc(Oc2ccc(-c3nnc(Nc4cc(C(F)(F)F)cc(C(F)(F)F)c4)[nH]3)cc2)n1` [Compound 120] displayed a viability at 48 h, 0.2 µM greater than 70%; a viability at 48 h, 1 µM greater than 70%; a viability at 48 h, 5 µM greater than 70%.

In turn, `CSc1nc(N)cc(Oc2ccc(Nc3nnc(-c4cccc(C(F)(F)F)c4)[nH]3)cc2)n1` [Compound 176] showed a viability at 48 h, 0.2 µM greater than 70%; a viability at 48 h, 1 µM greater than 70%; a viability at 48 h, 5 µM greater than 70%.

`COC(=O)c1cccc(Nc2nnc(-c3ccc(Oc4cc(N)nc(SC)n4)cc3)[nH]2)c1` [Compound 138] returned a viability at 48 h, 0.2 µM greater than 70%; a viability at 48 h, 1 µM greater than 70%; a viability at 48 h, 5 µM of less than 50%.

Compound `NS(=O)(=O)c1cnccc1Oc1ccc(-c2nnc(Nc3cccc(C(F)(F)F)c3)o2)cc1` [Compound 31] showed a viability at 48 h, 0.2 µM greater than 70%; a viability at 48 h, 1 µM greater than 70%; a viability at 48 h, 5 µM greater than 70%.

`Cc1cc(Oc2cccc(-c3nnc(Nc4cccc(C(F)(F)F)c4)[nH]3)c2)nc(N)n1` [Compound 54] gave a viability at 48 h, 0.2 µM greater than 70%; a viability at 48 h, 1 µM of less than 50%; a viability at 48 h, 5 µM of less than 50%.

As for `Cc1ccc2nccc(Oc3cccc(-c4nnc(Nc5cccc(C(F)(F)F)c5)[nH]4)c3)c2c1` [Compound 172], the viability at 48 h, 0.2 µM was greater than 70%; the viability at 48 h, 1 µM is greater than 70%; the viability at 48 h, 5 µM was in the range of 50 to 70%.

On to `FC(F)(F)c1cccc(Nc2nnc(-c3cccc(Oc4cncc5ccccc45)c3)[nH]2)c1` [Compound 164], for which the viability at 48 h, 0.2 µM is greater than 70%; the viability at 48 h, 1 µM was greater than 70%; the viability at 48 h, 5 µM was 50 to 70%.

`COc1ccc2c(Oc3ccc(-c4nnc(Nc5cccc(C(F)(F)F)c5)[nH]4)cc3)ccnc2c1` [Compound 11] gave a viability at 48 h, 0.2 µM greater than 70%; a viability at 48 h, 1 µM greater than 70%; a viability at 48 h, 5 µM of 50 to 70%.
